# Source: patent publication US10710978B2, “STK4 inhibitors for treatment of hematologic malignancies” (Dana-Farber Cancer Institute, Inc., priority 2015, dated 2020)
# Like-named read-outs stand apart in the source and are kept apart here.
# Legend:
# Assay in all cases: KiNativ assay
# Assay type in all cases: binding
# SMG1 = SMG1 (Homo sapiens (Human), UniProt Q96Q15); conditions: H929 live cell
# Experimental: (§1) Biochemical IC50s of the compounds of the present disclosure against various kinases were measured in a KiNativ assay. Compounds were screened in duplicate at 10 μM in H929 live cell. IC50 was measured via Mass spectroscopy (MS).
# PFTAIRE1 = PFTAIRE1 (Homo sapiens (Human), UniProt O94921); conditions: H929 live cell
# Experimental: as §1
# NuaK1 = NuaK1 (Homo sapiens (Human), UniProt O60285); conditions: H929 live cell
# Experimental: as §1
# PIK3CG = PIK3CG (Homo sapiens (Human), UniProt P48736); conditions: H929 live cell
# Experimental: as §1
# PRP4 = PRP4 (Homo sapiens (Human), UniProt Q13523); conditions: H929 live cell
# Experimental: as §1
# MAP3K2 = MAP3K2 (Homo sapiens (Human), UniProt Q9Y2U5); conditions: H929 live cell
# Experimental: as §1
# TAO1, TAO3 = conditions: H929 live cell
# Experimental: as §1
# PI4KA, PI4KAP2 = conditions: H929 live cell
# Experimental: as §1
# MARK2 = MARK2 (Homo sapiens (Human), UniProt Q7KZI7); conditions: H929 live cell
# Experimental: as §1
# Wnk1, Wnk2, Wnk3 = conditions: H929 live cell
# Experimental: as §1
# MPSK1 = MPSK1 (Homo sapiens (Human), UniProt O75716); conditions: H929 live cell, read-out: inhibition (10 μM)
# Experimental: as §1
# CSK = CSK (Homo sapiens (Human), UniProt P41240); conditions: H929 live cell
# Experimental: as §1
# ILK = ILK (Homo sapiens (Human), UniProt Q13418); conditions: H929 live cell
# Experimental: as §1
# ABL, ARG = conditions: H929 live cell
# Experimental: as §1
# NDR1 = NDR1 (Homo sapiens (Human), UniProt Q15208); conditions: H929 live cell
# Experimental: as §1
# PKD2 = PKD2 (Homo sapiens (Human), UniProt Q9BZL6); conditions: H929 live cell
# Experimental: as §1
# SLK = SLK (Homo sapiens (Human), UniProt Q9H2G2); conditions: H929 live cell
# Experimental: as §1
# MLKL = MLKL (Homo sapiens (Human), UniProt Q8NB16); conditions: H929 live cell
# Experimental: as §1
# MST3 = MST3 (Homo sapiens (Human), UniProt Q9Y6E0); conditions: H929 live cell
# Experimental: as §1
# MST1 = MST1 (Homo sapiens (Human), UniProt Q13043); conditions: H929 live cell
# Experimental: as §1
# EphB2 = EphB2 (Homo sapiens (Human), UniProt P29323); conditions: H929 live cell
# Experimental: as §1
# ULK1 = ULK1 (Homo sapiens (Human), UniProt O75385); conditions: H929 live cell
# Experimental: as §1
# MAP3K1 = MAP3K1 (Homo sapiens (Human), UniProt Q13233); conditions: H929 live cell
# Experimental: as §1
# IKKe, TBK1 = conditions: H929 live cell
# Experimental: as §1
# CDK7 = CDK7 (Homo sapiens (Human), UniProt P50613); conditions: H929 live cell
# Experimental: as §1
# BRAF = BRAF (Homo sapiens (Human), UniProt P15056); conditions: H929 live cell
# Experimental: as §1
# GSK3A = GSK3A (Homo sapiens (Human), UniProt P49840); conditions: H929 live cell
# Experimental: as §1
# SNRK = SNRK (Homo sapiens (Human), UniProt Q9NRH2); conditions: H929 live cell
# Experimental: as §1
# SRPK1 = SRPK1 (Homo sapiens (Human), UniProt Q96SB4); conditions: H929 live cell
# Experimental: as §1
# LATS1 = LATS1 (Homo sapiens (Human), UniProt O95835); conditions: H929 live cell
# Experimental: as §1
# MAP2K5 = MAP2K5 (Homo sapiens (Human), UniProt Q13163); conditions: H929 live cell
# Experimental: as §1
# ZAK = ZAK (Homo sapiens (Human), UniProt Q9NYL2); conditions: H929 live cell
# Experimental: as §1
# MAP2K7 = MAP2K7 (Homo sapiens (Human), UniProt O14733); conditions: H929 live cell
# Experimental: as §1
# MARK1, MARK2 = conditions: H929 live cell
# Experimental: as §1
# Sequence of NuaK1 (O60285 whole entry): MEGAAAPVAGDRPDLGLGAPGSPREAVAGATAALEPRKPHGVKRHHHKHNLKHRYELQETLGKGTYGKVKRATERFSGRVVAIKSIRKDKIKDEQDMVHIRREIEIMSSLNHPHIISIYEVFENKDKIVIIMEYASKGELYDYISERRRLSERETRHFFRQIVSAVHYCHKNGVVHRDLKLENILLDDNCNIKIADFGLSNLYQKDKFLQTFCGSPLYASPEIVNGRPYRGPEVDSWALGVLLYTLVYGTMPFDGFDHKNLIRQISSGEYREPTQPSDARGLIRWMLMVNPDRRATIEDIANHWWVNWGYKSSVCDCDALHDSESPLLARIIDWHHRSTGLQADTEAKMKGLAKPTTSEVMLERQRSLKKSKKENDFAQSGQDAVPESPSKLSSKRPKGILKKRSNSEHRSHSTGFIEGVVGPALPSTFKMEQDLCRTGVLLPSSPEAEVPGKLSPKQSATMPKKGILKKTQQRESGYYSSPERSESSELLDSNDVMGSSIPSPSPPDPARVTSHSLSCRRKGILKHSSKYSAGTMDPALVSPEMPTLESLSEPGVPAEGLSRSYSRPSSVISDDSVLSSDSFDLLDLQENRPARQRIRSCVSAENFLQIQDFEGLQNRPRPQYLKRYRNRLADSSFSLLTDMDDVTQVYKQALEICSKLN
# Sequence of LATS1 (O95835 whole entry): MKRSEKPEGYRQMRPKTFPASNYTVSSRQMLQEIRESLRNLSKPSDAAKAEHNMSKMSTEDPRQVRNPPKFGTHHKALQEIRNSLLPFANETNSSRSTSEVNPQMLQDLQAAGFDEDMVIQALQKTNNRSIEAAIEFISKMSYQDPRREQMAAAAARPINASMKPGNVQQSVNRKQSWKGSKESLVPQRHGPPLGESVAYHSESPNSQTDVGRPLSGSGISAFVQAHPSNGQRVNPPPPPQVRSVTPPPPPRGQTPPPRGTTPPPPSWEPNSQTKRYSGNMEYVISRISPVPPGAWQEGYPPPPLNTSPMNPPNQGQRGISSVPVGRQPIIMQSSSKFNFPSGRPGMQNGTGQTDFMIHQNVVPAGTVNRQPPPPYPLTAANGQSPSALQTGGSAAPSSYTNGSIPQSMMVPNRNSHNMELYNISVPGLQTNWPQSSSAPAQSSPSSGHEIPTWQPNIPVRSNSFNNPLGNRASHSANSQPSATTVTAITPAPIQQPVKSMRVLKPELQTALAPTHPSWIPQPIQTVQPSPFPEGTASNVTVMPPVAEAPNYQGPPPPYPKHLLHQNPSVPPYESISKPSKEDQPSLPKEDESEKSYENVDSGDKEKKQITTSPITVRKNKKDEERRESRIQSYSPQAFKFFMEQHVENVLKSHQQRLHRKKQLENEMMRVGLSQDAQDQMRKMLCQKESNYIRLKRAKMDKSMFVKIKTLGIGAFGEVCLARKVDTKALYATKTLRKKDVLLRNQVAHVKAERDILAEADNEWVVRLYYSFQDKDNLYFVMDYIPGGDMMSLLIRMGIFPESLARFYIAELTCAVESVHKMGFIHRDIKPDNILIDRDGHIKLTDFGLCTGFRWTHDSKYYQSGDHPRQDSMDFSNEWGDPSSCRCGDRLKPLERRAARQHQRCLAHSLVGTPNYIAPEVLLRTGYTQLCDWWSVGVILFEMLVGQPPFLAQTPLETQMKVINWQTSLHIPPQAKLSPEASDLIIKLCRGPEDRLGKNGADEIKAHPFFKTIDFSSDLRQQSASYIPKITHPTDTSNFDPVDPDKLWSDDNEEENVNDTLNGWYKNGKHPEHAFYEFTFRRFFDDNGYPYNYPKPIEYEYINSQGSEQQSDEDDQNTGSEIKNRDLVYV
# Sequence of MLKL (Q8NB16 whole entry): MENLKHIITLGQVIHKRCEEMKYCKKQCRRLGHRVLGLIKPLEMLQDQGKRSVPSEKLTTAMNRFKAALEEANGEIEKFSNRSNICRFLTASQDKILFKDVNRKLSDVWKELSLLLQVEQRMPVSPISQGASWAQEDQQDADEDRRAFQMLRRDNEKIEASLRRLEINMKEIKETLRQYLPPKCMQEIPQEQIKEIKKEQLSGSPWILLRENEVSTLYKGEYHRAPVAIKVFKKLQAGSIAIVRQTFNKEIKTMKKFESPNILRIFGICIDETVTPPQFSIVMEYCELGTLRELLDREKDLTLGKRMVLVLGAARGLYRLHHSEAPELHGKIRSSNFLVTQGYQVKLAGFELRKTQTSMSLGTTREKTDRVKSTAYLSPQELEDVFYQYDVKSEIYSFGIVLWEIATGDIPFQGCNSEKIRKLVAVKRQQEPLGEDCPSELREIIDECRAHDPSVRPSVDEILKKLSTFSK
# Sequence of PIK3CG (P48736 whole entry): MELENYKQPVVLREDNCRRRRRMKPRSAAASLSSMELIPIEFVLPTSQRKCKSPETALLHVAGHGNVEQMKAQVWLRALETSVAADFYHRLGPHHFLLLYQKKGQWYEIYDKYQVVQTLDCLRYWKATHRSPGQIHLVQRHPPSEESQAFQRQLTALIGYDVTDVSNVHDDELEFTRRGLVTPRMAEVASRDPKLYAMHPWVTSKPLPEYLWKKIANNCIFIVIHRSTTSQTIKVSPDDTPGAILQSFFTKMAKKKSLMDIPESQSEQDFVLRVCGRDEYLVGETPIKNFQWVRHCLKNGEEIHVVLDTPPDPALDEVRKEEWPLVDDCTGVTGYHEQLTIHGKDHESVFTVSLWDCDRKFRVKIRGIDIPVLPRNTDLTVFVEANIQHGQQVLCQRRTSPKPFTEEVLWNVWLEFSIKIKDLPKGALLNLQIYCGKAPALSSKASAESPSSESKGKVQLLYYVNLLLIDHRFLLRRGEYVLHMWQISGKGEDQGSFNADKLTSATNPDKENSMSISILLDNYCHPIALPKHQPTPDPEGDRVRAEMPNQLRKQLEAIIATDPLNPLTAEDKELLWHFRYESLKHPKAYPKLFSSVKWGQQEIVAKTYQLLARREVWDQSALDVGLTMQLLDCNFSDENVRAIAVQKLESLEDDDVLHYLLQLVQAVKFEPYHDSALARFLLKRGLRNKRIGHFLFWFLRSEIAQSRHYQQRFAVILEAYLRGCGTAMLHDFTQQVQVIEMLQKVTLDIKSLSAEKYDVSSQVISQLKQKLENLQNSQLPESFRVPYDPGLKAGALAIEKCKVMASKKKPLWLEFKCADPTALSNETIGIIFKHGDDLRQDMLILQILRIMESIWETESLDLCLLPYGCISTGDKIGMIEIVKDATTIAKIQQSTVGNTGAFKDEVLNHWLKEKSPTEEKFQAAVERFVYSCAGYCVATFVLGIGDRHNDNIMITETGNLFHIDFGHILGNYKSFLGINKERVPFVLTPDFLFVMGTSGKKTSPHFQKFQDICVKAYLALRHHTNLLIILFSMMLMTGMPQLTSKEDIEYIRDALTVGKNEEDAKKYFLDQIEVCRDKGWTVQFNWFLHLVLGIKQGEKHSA
# Sequence of SNRK (Q9NRH2 whole entry): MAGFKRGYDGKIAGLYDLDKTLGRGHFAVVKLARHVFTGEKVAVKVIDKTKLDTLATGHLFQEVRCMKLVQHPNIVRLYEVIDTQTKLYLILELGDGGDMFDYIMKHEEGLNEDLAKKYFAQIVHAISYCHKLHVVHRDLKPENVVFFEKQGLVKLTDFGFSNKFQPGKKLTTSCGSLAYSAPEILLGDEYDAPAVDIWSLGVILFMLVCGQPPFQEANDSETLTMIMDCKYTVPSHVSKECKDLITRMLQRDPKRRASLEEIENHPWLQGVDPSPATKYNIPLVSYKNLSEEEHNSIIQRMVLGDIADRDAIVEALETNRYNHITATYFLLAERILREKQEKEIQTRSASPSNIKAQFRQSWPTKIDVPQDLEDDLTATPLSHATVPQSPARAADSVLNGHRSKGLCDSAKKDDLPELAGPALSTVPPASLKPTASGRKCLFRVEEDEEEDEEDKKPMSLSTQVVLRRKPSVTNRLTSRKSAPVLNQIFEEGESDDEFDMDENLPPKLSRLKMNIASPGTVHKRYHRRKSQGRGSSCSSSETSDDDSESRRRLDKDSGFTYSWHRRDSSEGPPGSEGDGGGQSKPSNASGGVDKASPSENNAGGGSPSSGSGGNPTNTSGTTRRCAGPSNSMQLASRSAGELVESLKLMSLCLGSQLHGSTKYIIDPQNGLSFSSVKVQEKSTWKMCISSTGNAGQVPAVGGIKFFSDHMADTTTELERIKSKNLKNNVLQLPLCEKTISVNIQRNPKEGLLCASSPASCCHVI
# Sequence of BRAF (P15056 whole entry): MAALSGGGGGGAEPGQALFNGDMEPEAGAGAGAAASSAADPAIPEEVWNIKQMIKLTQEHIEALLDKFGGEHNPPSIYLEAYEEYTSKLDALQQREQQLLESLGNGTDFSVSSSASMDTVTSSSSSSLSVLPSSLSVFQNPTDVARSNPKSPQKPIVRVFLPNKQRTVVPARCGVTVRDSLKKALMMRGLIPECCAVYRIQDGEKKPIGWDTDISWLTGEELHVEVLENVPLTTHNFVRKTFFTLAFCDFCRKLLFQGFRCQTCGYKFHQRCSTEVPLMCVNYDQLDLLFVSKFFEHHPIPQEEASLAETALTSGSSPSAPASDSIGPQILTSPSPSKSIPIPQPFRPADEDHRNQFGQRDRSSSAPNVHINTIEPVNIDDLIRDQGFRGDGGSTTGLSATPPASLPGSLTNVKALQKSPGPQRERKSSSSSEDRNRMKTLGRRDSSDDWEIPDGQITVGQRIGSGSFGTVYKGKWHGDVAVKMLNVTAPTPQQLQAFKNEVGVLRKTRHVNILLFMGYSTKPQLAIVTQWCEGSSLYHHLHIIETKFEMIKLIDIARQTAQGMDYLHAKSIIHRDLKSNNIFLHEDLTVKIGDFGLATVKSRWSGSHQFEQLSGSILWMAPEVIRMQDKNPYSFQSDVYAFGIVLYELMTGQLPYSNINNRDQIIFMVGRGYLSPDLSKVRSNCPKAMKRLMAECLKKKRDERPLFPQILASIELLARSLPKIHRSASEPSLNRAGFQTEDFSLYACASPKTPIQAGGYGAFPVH
smiles,measurement,setting,value
"Nc1ncc(-c2cccc([N+](=O)[O-])c2F)cc1-c1ccc2c(c1)CCNC2=O [Compound I-9, 6-(2-amino-5-(2-fluoro-3-nitrophenyl)pyridin-3-yl)-3,4-dihydroisoquinolin-1(2H)-one]",inhibition at 10 µM,SMG1; read-out: % inhibition (range),> 90%
same,inhibition at 10 µM,SMG1; read-out: inhibition (10 μM),94.7%
same,inhibition at 10 µM,PFTAIRE1; read-out: % inhibition (range),50 to 75%
same,inhibition at 10 µM,PFTAIRE1; read-out: inhibition (10 μM),74.6%
same,inhibition (10 μM),NuaK1,>90%
same,inhibition at 10 µM,NuaK1; read-out: % inhibition (range),> 90%
same,inhibition at 10 µM,NuaK1; read-out: inhibition (10 μM),91%
same,inhibition at 10 µM,PIK3CG; read-out: % inhibition (range),0%
same,inhibition at 10 µM,PIK3CG; read-out: inhibition (10 μM),16.3%
same,inhibition at 10 µM,PRP4; read-out: % inhibition (range),50 to 75%
same,inhibition at 10 µM,PRP4; read-out: inhibition (10 μM),70.2%
same,inhibition at 10 µM,MAP3K2; read-out: % inhibition (range),0%
same,inhibition at 10 µM,MAP3K2; read-out: inhibition (10 μM),0.3%
same,% inhibition (range),"TAO1, TAO3; 10 μM",50-75%
same,inhibition (10 μM),"TAO1, TAO3",67.5%
same,% inhibition (range),"PI4KA, PI4KAP2; 10 μM",0.0%
same,inhibition (10 μM),"PI4KA, PI4KAP2",−5.5%
same,inhibition at 10 µM,MARK2; read-out: % inhibition (range),50 to 75%
same,inhibition at 10 µM,MARK2; read-out: inhibition (10 μM),63.5%
same,% inhibition (range),"Wnk1, Wnk2, Wnk3; 10 μM",>100%
same,inhibition (10 μM),"Wnk1, Wnk2, Wnk3",−105.5%
same,inhibition at 10 µM,MPSK1,55.2%
same,inhibition at 10 µM,CSK; read-out: % inhibition (range),0%
same,inhibition at 10 µM,CSK; read-out: inhibition (10 μM),-4.5%
same,inhibition at 10 µM,ILK; read-out: % inhibition (range),0%
same,inhibition at 10 µM,ILK; read-out: inhibition (10 μM),-19%
same,% inhibition (range),"ABL, ARG; 10 μM",75-90%
same,inhibition (10 μM),"ABL, ARG",75.7%
same,inhibition at 10 µM,NDR1; read-out: % inhibition (range),0%
same,inhibition at 10 µM,NDR1; read-out: inhibition (10 μM),3.5%
same,inhibition at 10 µM,PKD2; read-out: % inhibition (range),35 to 50%
same,inhibition at 10 µM,PKD2; read-out: inhibition (10 μM),46.2%
same,inhibition at 10 µM,SLK; read-out: % inhibition (range),> 90%
same,inhibition at 10 µM,SLK; read-out: inhibition (10 μM),95.3%
same,inhibition at 10 µM,MLKL; read-out: % inhibition (range),50 to 75%
same,inhibition at 10 µM,MLKL; read-out: inhibition (10 μM),66.9%
same,inhibition at 10 µM,MST3; read-out: % inhibition (range),35 to 50%
same,inhibition at 10 µM,MST3; read-out: inhibition (10 μM),40.4%
same,inhibition at 10 µM,MST1; read-out: % inhibition (range),> 90%
same,inhibition at 10 µM,MST1; read-out: inhibition (10 μM),95.4%
same,inhibition at 10 µM,EphB2; read-out: % inhibition (range),0%
same,inhibition at 10 µM,EphB2; read-out: inhibition (10 μM),-25%
same,inhibition at 10 µM,ULK1; read-out: % inhibition (range),0%
same,inhibition at 10 µM,ULK1; read-out: inhibition (10 μM),-19.6%
same,inhibition at 10 µM,MAP3K1; read-out: % inhibition (range),> 90%
same,inhibition at 10 µM,MAP3K1; read-out: inhibition (10 μM),95.6%
same,% inhibition (range),"IKKe, TBK1; 10 μM",0.0%
same,inhibition (10 μM),"IKKe, TBK1",21.2%
same,inhibition at 10 µM,CDK7; read-out: % inhibition (range),75 to 90%
same,inhibition at 10 µM,CDK7; read-out: inhibition (10 μM),78.2%
same,inhibition at 10 µM,BRAF; read-out: % inhibition (range),0%
same,inhibition at 10 µM,BRAF; read-out: inhibition (10 μM),3.3%
same,inhibition at 10 µM,GSK3A; read-out: % inhibition (range),> 90%
same,inhibition at 10 µM,GSK3A; read-out: inhibition (10 μM),97.2%
same,inhibition at 10 µM,SNRK; read-out: % inhibition (range),35 to 50%
same,inhibition at 10 µM,SNRK; read-out: inhibition (10 μM),43.7%
same,inhibition at 10 µM,SRPK1; read-out: % inhibition (range),0%
same,inhibition at 10 µM,SRPK1; read-out: inhibition (10 μM),32.8%
same,inhibition at 10 µM,LATS1; read-out: % inhibition (range),0%
same,inhibition at 10 µM,LATS1; read-out: inhibition (10 μM),33.1%
same,inhibition at 10 µM,MAP2K5; read-out: % inhibition (range),75 to 90%
same,inhibition at 10 µM,MAP2K5; read-out: inhibition (10 μM),75.2%
same,inhibition at 10 µM,ZAK; read-out: % inhibition (range),35 to 50%
same,inhibition at 10 µM,ZAK; read-out: inhibition (10 μM),42%
same,inhibition at 10 µM,MAP2K7; read-out: % inhibition (range),0%
same,inhibition at 10 µM,MAP2K7; read-out: inhibition (10 μM),14.6%
same,% inhibition (range),"MARK1, MARK2; 10 μM",35-50%
same,inhibition (10 μM),"MARK1, MARK2",40.7%
